Laboratory results published in the supplement of paper PMC11061612.

Legend:
AZD1775 = compound: C=CCn1c(=O)c2cnc(Nc3ccc(N4CCN(C)CC4)cc3)nc2n1-c1cccc(C(C)(C)O)n1 [AZD1775]; conditions: max 3 µM
In short: (§1)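 Cancer cell lines in 1536-well plates (7.5 μl DMEM/F12 or RPMI, 10% FBS) were held 24 hours at 37°C and 5% CO2 and then dosed for 72 hours at a final DMSO of typically 0.2%. Viability was taken from CellTiter-Glo 2.0 luminescence, scaled between blank-well and DMSO-well means. Curves were fitted as two-parameter logistic models with a non-linear mixed effects model, from which the single-agent IC50 was taken.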

AZD5153 = compound: COc1nnc2ccc(N3CCC(c4ccc(OCCN5CCN(C)C(=O)[C@H]5C)cc4)CC3)nn12 [AZD5153]; conditions: max 1 µM
In short: as §1

AZD4320 = compound: CN(CC[C@H](CSC1=CC=CC=C1)NC2=C(C=C(C=C2)S(=O)(=O)NC(=O)C3=CC=C(C=C3)N4CCC(CC4)[C@H](C5=CC=CC=C5C6=CC=C(C=C6)Cl)O)S(=O)(=O)C(F)(F)F)CCO [AZD4320]; conditions: max 1 µM
In short: as §1

Alisertib = compound: COc1cc(Nc2ncc3c(n2)-c2ccc(Cl)cc2C(c2c(F)cccc2OC)=NC3)ccc1C(=O)O [Alisertib]; conditions: max 10 µM
In short: as §1

Venetoclax = compound: CC1(C)CCC(CN2CCN(c3ccc(C(=O)NS(=O)(=O)c4ccc(NCC5CCOCC5)c([N+](=O)[O-])c4)c(Oc4cnc5[nH]ccc5c4)c3)CC2)=C(c2ccc(Cl)cc2)C1 [Venetoclax]; conditions: max 1 µM
In short: as §1

Prexasertib = compound: COc1cccc(OCCCN)c1-c1cc(Nc2cnc(C#N)cn2)n[nH]1 [Prexasertib]; conditions: max 1 µM
In short: as §1

AZD1390 = compound: CC(C)n1c(=O)n(C)c2cnc3cc(F)c(-c4ccc(OCCCN5CCCCC5)nc4)cc3c21 [AZD1390]; conditions: max 0.3 µM
In short: as §1

Olaparib = compound: O=C(c1cc(Cc2n[nH]c(=O)c3ccccc23)ccc1F)N1CCN(C(=O)C2CC2)CC1 [Olaparib]; conditions: max 10 µM
In short: as §1

Trametinib = compound: CC(=O)Nc1cccc(-n2c(=O)n(C3CC3)c(=O)c3c(Nc4ccc(I)cc4F)n(C)c(=O)c(C)c32)c1 [Trametinib]; conditions: max 1 µM
In short: as §1

Capivasertib = compound: C1CN(CCC1(C(=O)N[C@@H](CCO)C2=CC=C(C=C2)Cl)N)C3=NC=NC4=C3C=CN4 [Capivasertib]; conditions: max 10 µM
In short: as §1

Savolitinib = compound: C[C@@H](c1ccc2nccn2c1)n1nnc2ncc(-c3cnn(C)c3)nc21 [Savolitinib]; conditions: max 1 µM
In short: as §1

AZD5991 = compound: Cc1c2c(nn1C)CSCc1cc(n(C)n1)CSc1cc(c3ccccc3c1)OCCCc1c(C(=O)O)n(C)c3c-2c(Cl)ccc13 [AZD5991]; conditions: max 1 µM
In short: as §1

SN-38 = compound: CCc1c2c(nc3ccc(O)cc13)-c1cc3c(c(=O)n1C2)COC(=O)[C@]3(O)CC [SN-38]; conditions: max 0.3 µM
In short: as §1

Gefitinib = compound: COc1cc2ncnc(Nc3ccc(F)c(Cl)c3)c2cc1OCCCN1CCOCC1 [Gefitinib]; conditions: max 10 µM
In short: as §1

AZD0156 = compound: CN(C)CCCOc1ccc(-c2ccc3ncc4c(c3c2)n(C2CCOCC2)c(=O)n4C)cn1 [AZD0156]; conditions: max 3 µM
In short: as §1

AZD6738 = compound: C[C@@H]1COCCN1C2=NC(=NC(=C2)C3(CC3)[S@](=N)(=O)C)C4=C5C=CNC5=NC=C4 [AZD6738]; conditions: max 10 µM
In short: as §1

SG3199 = compound: CC1=CN2[C@@H](C1)C=NC3=CC(=C(C=C3C2=O)OC)OCCCCCOC4=C(C=C5C(=C4)N=C[C@@H]6CC(=CN6C5=O)C)OC [SG3199]; conditions: max 0.001 µM
In short: as §1

AZD8186 = compound: C[C@@H](Nc1cc(F)cc(F)c1)c1cc(C(=O)N(C)C)cc2c(=O)cc(N3CCOCC3)oc12 [AZD8186]; conditions: max 3 µM
In short: as §1

Dasatinib = compound: CC1=C(C(=CC=C1)Cl)NC(=O)C2=CN=C(S2)NC3=CC(=NC(=N3)C)N4CCN(CC4)CCO [Dasatinib]; conditions: max 2 µM
In short: as §1

Palbociclib = compound: CC(=O)c1c(C)c2cnc(Nc3ccc(N4CCNCC4)cn3)nc2n(C2CCCC2)c1=O [Palbociclib]; conditions: max 10 µM
In short: as §1

Selumetinib = compound: Cn1cnc2c(F)c(Nc3ccc(Br)cc3Cl)c(C(=O)NOCCO)cc21 [Selumetinib]; conditions: max 10 µM
In short: as §1

AZD2811 = compound: CCN(CCO)CCCOc1ccc2c(Nc3cc(CC(=O)Nc4cccc(F)c4)[nH]n3)ncnc2c1 [AZD2811]; conditions: max 1 µM
In short: as §1

Lapatinib = compound: CS(=O)(=O)CCNCc1ccc(-c2ccc3ncnc(Nc4ccc(OCc5cccc(F)c5)c(Cl)c4)c3c2)o1 [Lapatinib]; conditions: max 10 µM
In short: as §1

Doxorubicin = compound: COc1cccc2c1C(=O)c1c(O)c3c(c(O)c1C2=O)C[C@@](O)(C(=O)CO)C[C@@H]3O[C@H]1C[C@H](N)[C@H](O)[C@H](C)O1 [Doxorubicin]; conditions: max 1 µM
In short: as §1

AZD7648 = compound: Cc1cc2ncnn2cc1Nc1ncc2c(n1)n(C1CCOCC1)c(=O)n2C [AZD7648]; conditions: max 10 µM
In short: as §1

Crizotinib = compound: C[C@@H](Oc1cc(-c2cnn(C3CCNCC3)c2)cnc1N)c1c(Cl)ccc(F)c1Cl [Crizotinib]; conditions: max 10 µM
In short: as §1

Taselisib = compound: Cc1nc(-c2cn3c(n2)-c2ccc(-c4cnn(C(C)(C)C(N)=O)c4)cc2OCC3)n(C(C)C)n1 [Taselisib]; conditions: max 10 µM
In short: as §1

Row | Cell Line | IC50, cell viability 72 h (AZD1775) | IC50, cell viability 72 h (AZD5153) | IC50, cell viability 72 h (AZD4320) | IC50, cell viability 72 h (Alisertib) | IC50, cell viability 72 h (Venetoclax) | IC50, cell viability 72 h (Prexasertib) | IC50, cell viability 72 h (AZD1390) | IC50, cell viability 72 h (Olaparib) | IC50, cell viability 72 h (Trametinib) | IC50, cell viability 72 h (Capivasertib) | IC50, cell viability 72 h (Savolitinib) | IC50, cell viability 72 h (AZD5991) | IC50, cell viability 72 h (SN-38) | IC50, cell viability 72 h (Gefitinib) | IC50, cell viability 72 h (AZD0156) | IC50, cell viability 72 h (AZD6738) | IC50, cell viability 72 h (SG3199) | IC50, cell viability 72 h (AZD8186) | IC50, cell viability 72 h (Dasatinib) | IC50, cell viability 72 h (Palbociclib) | IC50, cell viability 72 h (Selumetinib) | IC50, cell viability 72 h (AZD2811) | IC50, cell viability 72 h (Lapatinib) | IC50, cell viability 72 h (Doxorubicin) | IC50, cell viability 72 h (AZD7648) | IC50, cell viability 72 h (Crizotinib) | IC50, cell viability 72 h (Taselisib)
1 | COR-L311 (Small Cell Lung Carcinoma) | 910 nM | 175 nM | 1.92 nM | 1510 nM | 208 nM | 107 nM | > 300 nM | > 10000 nM | > 1000 nM | 3020 nM | > 1000 nM | > 1000 nM | 3.07 nM | > 10000 nM | > 3000 nM | > 10000 nM | > 1 nM | > 3000 nM | > 2000 nM | > 10000 nM | > 10000 nM | 75.4 nM | > 10000 nM | 685 nM | > 10000 nM | 2970 nM | 1610 nM
2 | GI-ME-N (Neuroblastoma) | 2220 nM | > 1000 nM | > 1000 nM | > 10000 nM | > 1000 nM | 731 nM | > 300 nM | > 10000 nM | > 1000 nM | > 10000 nM | > 1000 nM | > 1000 nM | > 300 nM | > 10000 nM | > 3000 nM | > 10000 nM | > 1 nM | > 3000 nM | > 2000 nM | > 10000 nM | > 10000 nM | > 1000 nM | > 10000 nM | > 1000 nM | > 10000 nM | > 10000 nM | > 10000 nM
3 | Hs-445 (Non-Cancerous) | 134 nM | > 1000 nM | 224 nM | > 10000 nM | > 1000 nM | 3.9 nM | > 300 nM | > 10000 nM | > 1000 nM | 3880 nM | > 1000 nM | 213 nM | 3.33 nM | > 10000 nM | > 3000 nM | 2090 nM | > 1 nM | > 3000 nM | > 2000 nM | > 10000 nM | > 10000 nM | > 1000 nM | > 10000 nM | 146 nM | > 10000 nM | > 10000 nM | 9180 nM
4 | JSC-1 (B-Cell Non-Hodgkin's Lymphoma) | 328 nM | 66.7 nM | > 1000 nM | 7110 nM | > 1000 nM | 5.24 nM | > 300 nM | > 10000 nM | 260 nM | 7450 nM | > 1000 nM | 33.4 nM | 2.11 nM | > 10000 nM | > 3000 nM | 1860 nM | > 1 nM | > 3000 nM | > 2000 nM | 5840 nM | 4680 nM | > 1000 nM | > 10000 nM | 120 nM | > 10000 nM | 6190 nM | > 10000 nM
5 | MDST8 (Colorectal Carcinoma) | 875 nM | > 1000 nM | 890 nM | > 10000 nM | > 1000 nM | 25 nM | > 300 nM | > 10000 nM | 19.9 nM | > 10000 nM | > 1000 nM | > 1000 nM | 15.6 nM | > 10000 nM | > 3000 nM | 7450 nM | > 1 nM | > 3000 nM | > 2000 nM | > 10000 nM | 1150 nM | > 1000 nM | > 10000 nM | 224 nM | > 10000 nM | > 10000 nM | > 10000 nM
6 | NCI-H1650 (Lung Adenocarcinoma) | > 3000 nM | > 1000 nM | > 1000 nM | > 10000 nM | > 1000 nM | 472 nM | > 300 nM | > 10000 nM | > 1000 nM | > 10000 nM | > 1000 nM | > 1000 nM | > 300 nM | > 10000 nM | > 3000 nM | > 10000 nM | > 1 nM | > 3000 nM | > 2000 nM | > 10000 nM | > 10000 nM | > 1000 nM | > 10000 nM | > 1000 nM | > 10000 nM | > 10000 nM | > 10000 nM
7 | NCI-H1693 (Lung Adenocarcinoma) | > 3000 nM | > 1000 nM | > 1000 nM | > 10000 nM | > 1000 nM | > 1000 nM | > 300 nM | > 10000 nM | > 1000 nM | > 10000 nM | > 1000 nM | > 1000 nM | 87.2 nM | > 10000 nM | > 3000 nM | > 10000 nM | > 1 nM | > 3000 nM | > 2000 nM | > 10000 nM | > 10000 nM | > 1000 nM | > 10000 nM | > 1000 nM | > 10000 nM | > 10000 nM | > 10000 nM
8 | NCI-H2141 (Small Cell Lung Carcinoma) | 2200 nM | > 1000 nM | 307 nM | > 10000 nM | > 1000 nM | 458 nM | > 300 nM | > 10000 nM | > 1000 nM | > 10000 nM | > 1000 nM | > 1000 nM | > 300 nM | > 10000 nM | > 3000 nM | > 10000 nM | > 1 nM | > 3000 nM | > 2000 nM | > 10000 nM | > 10000 nM | > 1000 nM | > 10000 nM | > 1000 nM | > 10000 nM | > 10000 nM | > 10000 nM
